Assay results taken from patent publication US20230159509A1 (Amathus Therapeutics, Inc., priority 2020, published 2023).

What was measured:
TRAP1 enzyme [1] = target: T1, TRAP1 enzyme (Homo sapiens, UniProt Q12931); test: ADP Glo assay of TRAP1 ATPase activity; type: biochemical; conditions: for EC50: concentration for half maximal activation, read-out: ADP GLO DRC: GeoMean EC50; for Emax: maximal percent activation, read-out: ADP GLO DRC: Mean Emax
T1 construct: 150 nM Trap1 enzyme was incubated with various concentrations of the test compound
T1 sequence (Q12931 60-704): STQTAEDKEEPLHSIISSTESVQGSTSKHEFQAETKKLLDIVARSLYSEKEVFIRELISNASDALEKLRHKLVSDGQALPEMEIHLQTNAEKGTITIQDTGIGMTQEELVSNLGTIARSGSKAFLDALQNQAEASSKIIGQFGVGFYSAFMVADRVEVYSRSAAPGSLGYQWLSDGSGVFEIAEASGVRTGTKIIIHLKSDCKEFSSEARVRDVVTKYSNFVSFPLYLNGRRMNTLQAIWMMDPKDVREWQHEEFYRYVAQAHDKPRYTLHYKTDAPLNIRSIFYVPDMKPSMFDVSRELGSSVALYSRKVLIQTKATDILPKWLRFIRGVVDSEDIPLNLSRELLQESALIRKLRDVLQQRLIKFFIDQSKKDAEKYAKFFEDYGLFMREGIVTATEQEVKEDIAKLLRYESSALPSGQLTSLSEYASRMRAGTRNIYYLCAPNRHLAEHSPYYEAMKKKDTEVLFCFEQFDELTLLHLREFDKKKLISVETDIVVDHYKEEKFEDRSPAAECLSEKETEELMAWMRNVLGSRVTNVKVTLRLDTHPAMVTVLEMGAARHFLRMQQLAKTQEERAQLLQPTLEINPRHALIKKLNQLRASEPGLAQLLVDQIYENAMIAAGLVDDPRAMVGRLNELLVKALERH
How it was run: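 ADP-Glo luminescence quantifying ADP from 150 nM TRAP1 preincubated 30 min at 37° C with compound (0.79–100 μM), then 20 μM ATP for 60 min at 37° C. Buffer: 25 mM Pipes pH 7.5, 40 mM KCl, 0.05 mM MgCl2, EGTA, BSA, detergents. ADP from ATP/ADP standard curve; Emax and EC50 from sigmoidal fit.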

mIMCD3 Pkd1 KO cells = test: Mouse cell derived cyst assay; type: cell-based; conditions: Pkd 1 KO mouse cell derived cyst forming assay; FIG. 16
Method: Mouse cell derived cyst assays were performed as described in Booij, Tijmen H et al., SLAS discovery: advancing life sciences R & D vol. 22.8 (2017): 974-984, or as described below.
Murine inner medullary collecting duct cell line (mIMCD3 Pkd1^−/− cells) • mIMCD3 Pkd1 KO cells were seeded in 384 wells plates in extracellular matrix. • 4 days after seeding, cultures were co-exposed to treatments and stimuli (2.5 μM forskolin); • After 72 h, cultures were fixed, stained for nuclei and actin cytoskeleton and imaged with 4× magnification; and • Image analysis of the 3D stack was done using Ominer™ image analysis software.

[2] = system: tamoxifen-induced polycystic kidney disease model (Ksp-TamCre×PkdlLox); test: Tamoxifen-induced polycystic kidney disease mouse model; type: in vivo; conditions: compound 1206 10 mg/kg po QD 14d; for 2 KW/BW ratio (kidney weight/body weight): compared to tamoxifen-induced vehicle control group
Method: Compound 1206 (10 mg/kg po, QD dosing for 14d, n=13/group) was assessed in a tamoxifen-induced polycystic kidney disease model (Ksp-TamCre×PkdlLox; Human Molecular Genetics, 2007, Vol. 16, No. 24, 3188-3196). A negative control group induced with tamoxifen (Vehicle) and a negative control group not induced with tamoxifen (No Tam) were included. A positive control group was dosed with everolimus. Mice were dosed orally on both PND 10, 11 with 25 mg/kg tamoxifen. Oral dosage of vehicle, compound 1206, and everolimus started from PND 14 onwards to PND 27. The readouts of this study were body weight, kidney weight, BUN levels and histopathology assessment including cyst index.
The fixated kidney half was processed for paraffin embedding and further pathological assessment after hematoxylin-eosin staining. One piece of each H-E stained kidney half was observed by a board certified pathologist, who read a cross section of the kidney. For each kidney one section was evaluated. From this section an overview photo was taken (2X) and used to calculate the cystic index. The cystic areas were identified by a color thresholding method using an image analysis system (Image software, public domain software, NIH, Bethesda, Md.). The threshold area was calculated within a defined ROI (region of interest) representing the total area analyzed. This area represents at least 70-80% of the entire kidney section. The cystic index (CI) is defined as the percentage of the area of cysts lumen (in pixels) over the total kidney area in the selected ROI (in pixels).

TRAP1 enzyme [3] = target: T1, TRAP1 enzyme; test: Malachite green phosphate assay of TRAP1 ATPase activity; type: biochemical
Method: The Potency of test compounds to modulate the ATPase activity of TRAP1 enzyme was evaluated using malachite green phosphatase assay. The assay is based on quantification of the green complex formed between Malachite Green, molybdate and inorganic phosphate generated in the phosphatase reaction. Assays were performed using a Malachite Green assay kit. All the assays were carried out in a 96-well transparent plate. The buffer used was 50 mM HEPES (pH 7.5), 20 mM KCl, 4 mM MgCl2 and 0.05% BSA. 150 nM Trap1 enzyme was incubated with various concentrations of the test compound (0.78 μM-100 μM) at 37° C. for 30 mins. 20 μM ATP was added to each well (except blank wells) to start the reaction and the plate was then incubated at 37° C. for 180 mins. 10 μl of the reaction volume of each sample was then transferred to a white 384-well proxiplate in quadruplets. 2.5 μl of Malachite Green reagent was added to all the wells and the plate was equilibrated for 15 mins. The reaction was stopped by adding 12% H2SO4 and the plate was read for fluorescence at 620 nm (λex=573 nm). The amount of phosphate released was estimated from a phosphate standard curve generated at the same experimental conditions. Emax (Maximal percent activation) and EC50 (concentration of test compound for half maximal activation) were estimated by fitting the dose response data to a sigmoidal curve fitting equation using Graphpad Prism software V.7.0.

[4] = compared with tamoxifen-induced vehicle control group

EC50 (TRAP1 enzyme [1]) | Emax (TRAP1 enzyme [1]) | EC50 (TRAP1 enzyme [3]; concentration for half maximal activation, read-out: Malachite Green Fluor DRC: GeoMean EC50) | Emax (TRAP1 enzyme [3]; maximal percent activation, read-out: Malachite Green Fluor DRC: Mean Emax) | Structure (SMILES) | cyst formation (mIMCD3 Pkd1 KO cells) | 2 KW/BW ratio (kidney weight/body weight) [2] | cystic index [2, 4] | urea levels (BUN) [2, 4]
< 10 µM | 119 to 159% |  |  | COc1ncc(NC(=O)c2ccc3c(c2)n(C)c(=O)n3C)cc1S(=O)(=O)Nc1ccc(Cl)cc1 [compound 1206, N-(5-(N-(4-chlorophenyl)sulfamoyl)-6-methoxypyridin-3-yl)-1,3-dimethyl-2-oxo-2,3-dihydro-1H-benzo[d]imidazole-5-carboxamide] | preventing cyst formation | significantly lower | significantly lower | significantly lower
20 to 100 µM | 160 to 199% | 20 to 100 µM | 200 to 300% | COc1ncc(NC(=O)c2ncc(-c3ccccc3)o2)cc1S(=O)(=O)Nc1c(Cl)cccc1Cl [compound 670, N-(5-(N-(2,6-dichlorophenyl)sulfamoyl)-6-methoxypyridin-3-yl)-5-phenyloxazole-2-carboxamide] |  |  |  | 
 |  |  |  | CO[C@H]1C[C@@H]2CC[C@@H](C)[C@@](O)(O2)C(=O)C(=O)N2CCCC[C@H]2C(=O)O[C@H]([C@H](C)C[C@@H]2CC[C@@H](OCCO)[C@H](OC)C2)CC(=O)[C@H](C)/C=C(\C)[C@@H](O)[C@@H](OC)C(=O)[C@H](C)C[C@H](C)/C=C/C=C/C=C/1C [everolimus, reference compound] |  | significantly lower | significantly lower | 
